# Experimental data published in ChEMBL document CHEMBL5465560, “Selectivity Literature for EUbOPEN Chemogenomic Library” (2024).
# pIC50: −log10 of the molar value.
# Assays:
# SRSF protein kinase 1 = SRSF protein kinase 1 (Homo sapiens, UniProt Q96SB4); details: at 10 µM
# [1] = molecular target: Myosin-IIIa (Homo sapiens) (UniProt Q8NEV4); experiment: Selectivity interaction (Ambit KINOMEscan and KiNATiv profiling in Jurkat cells) EUB0000090b MYO3A; type: cell-based; details: at 1 µM
# [2] = molecular target: T1, Serine/threonine-protein kinase D2 (Homo sapiens) (UniProt Q9BZL6); experiment: Selectivity interaction (KinomeScan (DiscoverX)) EUB0000655a PRKD2; details: at 10 µM
# T1 sequence (whole entry): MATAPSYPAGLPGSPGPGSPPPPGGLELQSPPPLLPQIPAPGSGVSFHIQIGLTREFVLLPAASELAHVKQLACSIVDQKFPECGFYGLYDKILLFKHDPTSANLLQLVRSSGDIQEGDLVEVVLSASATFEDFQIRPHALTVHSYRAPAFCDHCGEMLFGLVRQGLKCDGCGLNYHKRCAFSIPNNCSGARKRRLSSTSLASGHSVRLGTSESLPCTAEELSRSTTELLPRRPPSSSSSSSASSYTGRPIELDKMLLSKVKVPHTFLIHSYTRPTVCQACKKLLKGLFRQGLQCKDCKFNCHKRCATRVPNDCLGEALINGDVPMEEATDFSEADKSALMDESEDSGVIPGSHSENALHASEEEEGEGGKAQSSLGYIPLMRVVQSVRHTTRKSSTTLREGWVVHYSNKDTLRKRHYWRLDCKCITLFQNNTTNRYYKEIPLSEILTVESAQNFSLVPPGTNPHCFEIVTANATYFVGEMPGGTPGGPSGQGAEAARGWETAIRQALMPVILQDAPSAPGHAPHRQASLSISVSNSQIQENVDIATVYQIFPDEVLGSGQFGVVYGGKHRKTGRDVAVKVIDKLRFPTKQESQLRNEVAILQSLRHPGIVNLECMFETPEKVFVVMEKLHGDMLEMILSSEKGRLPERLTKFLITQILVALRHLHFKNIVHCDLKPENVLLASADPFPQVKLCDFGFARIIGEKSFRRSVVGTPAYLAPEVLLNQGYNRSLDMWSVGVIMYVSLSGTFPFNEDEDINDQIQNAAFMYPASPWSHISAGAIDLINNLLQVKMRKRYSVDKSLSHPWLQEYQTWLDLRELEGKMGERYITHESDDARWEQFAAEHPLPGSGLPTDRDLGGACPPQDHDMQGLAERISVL
# [3] = molecular target: Tyrosine-protein kinase Blk (Homo sapiens) (UniProt P51451); experiment: Selectivity interaction (KinomeScan (DiscoverX)) EUB0000655a BLK; details: at 10 µM
# [4] = molecular target: Vascular endothelial growth factor receptor 1 (Homo sapiens) (UniProt P17948); experiment: Selectivity interaction (KinomeScan (DiscoverX)) EUB0000607a FLT1; details: at 10 µM
# [5] = molecular target: Serine/threonine-protein kinase B-raf (Homo sapiens) (UniProt P15056); experiment: (§1) Selectivity interaction (KinomeScan (DiscoverX)) EUB0000607a BRAF; details: at 10 µM
# Serine/threonine-protein kinase B-raf (Homo sapiens), sequence (P15056 whole entry): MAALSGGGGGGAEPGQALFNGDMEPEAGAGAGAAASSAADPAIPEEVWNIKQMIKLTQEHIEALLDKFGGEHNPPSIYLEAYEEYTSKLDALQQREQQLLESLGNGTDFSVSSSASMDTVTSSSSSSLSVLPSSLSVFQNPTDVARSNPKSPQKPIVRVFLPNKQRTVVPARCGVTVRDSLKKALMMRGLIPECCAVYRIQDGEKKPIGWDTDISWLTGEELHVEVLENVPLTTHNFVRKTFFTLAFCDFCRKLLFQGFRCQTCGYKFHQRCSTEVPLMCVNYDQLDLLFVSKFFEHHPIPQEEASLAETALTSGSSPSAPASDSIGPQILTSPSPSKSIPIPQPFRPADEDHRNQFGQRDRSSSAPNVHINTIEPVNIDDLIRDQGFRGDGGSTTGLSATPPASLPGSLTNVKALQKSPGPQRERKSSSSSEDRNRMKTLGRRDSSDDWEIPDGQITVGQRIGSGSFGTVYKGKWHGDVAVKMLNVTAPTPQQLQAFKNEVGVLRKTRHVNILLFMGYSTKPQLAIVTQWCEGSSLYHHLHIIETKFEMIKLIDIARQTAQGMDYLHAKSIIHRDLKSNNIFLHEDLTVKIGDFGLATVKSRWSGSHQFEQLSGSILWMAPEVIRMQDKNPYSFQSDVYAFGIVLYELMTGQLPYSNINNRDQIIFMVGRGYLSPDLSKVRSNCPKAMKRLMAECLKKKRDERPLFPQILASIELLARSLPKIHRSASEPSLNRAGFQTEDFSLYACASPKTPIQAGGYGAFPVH
# [6] = test system: Serine/threonine-protein kinase B-raf (Homo sapiens), P15056 [V600E]; experiment: as §1; details: at 10 µM
# Serine/threonine-protein kinase B-raf (Homo sapiens), P15056 [V600E], sequence (P15056 whole entry V600E): as the sequence (P15056 whole entry) above, with V600E counted along it
# [7] = molecular target: Tyrosine-protein kinase JAK1 (Homo sapiens, UniProt P23458); experiment: Selectivity interaction (KinomeScan (DiscoverX)) EUB0001619a JAK1; details: at 1 µM
# Tyrosine-protein kinase JAK1, sequence (P23458 whole entry): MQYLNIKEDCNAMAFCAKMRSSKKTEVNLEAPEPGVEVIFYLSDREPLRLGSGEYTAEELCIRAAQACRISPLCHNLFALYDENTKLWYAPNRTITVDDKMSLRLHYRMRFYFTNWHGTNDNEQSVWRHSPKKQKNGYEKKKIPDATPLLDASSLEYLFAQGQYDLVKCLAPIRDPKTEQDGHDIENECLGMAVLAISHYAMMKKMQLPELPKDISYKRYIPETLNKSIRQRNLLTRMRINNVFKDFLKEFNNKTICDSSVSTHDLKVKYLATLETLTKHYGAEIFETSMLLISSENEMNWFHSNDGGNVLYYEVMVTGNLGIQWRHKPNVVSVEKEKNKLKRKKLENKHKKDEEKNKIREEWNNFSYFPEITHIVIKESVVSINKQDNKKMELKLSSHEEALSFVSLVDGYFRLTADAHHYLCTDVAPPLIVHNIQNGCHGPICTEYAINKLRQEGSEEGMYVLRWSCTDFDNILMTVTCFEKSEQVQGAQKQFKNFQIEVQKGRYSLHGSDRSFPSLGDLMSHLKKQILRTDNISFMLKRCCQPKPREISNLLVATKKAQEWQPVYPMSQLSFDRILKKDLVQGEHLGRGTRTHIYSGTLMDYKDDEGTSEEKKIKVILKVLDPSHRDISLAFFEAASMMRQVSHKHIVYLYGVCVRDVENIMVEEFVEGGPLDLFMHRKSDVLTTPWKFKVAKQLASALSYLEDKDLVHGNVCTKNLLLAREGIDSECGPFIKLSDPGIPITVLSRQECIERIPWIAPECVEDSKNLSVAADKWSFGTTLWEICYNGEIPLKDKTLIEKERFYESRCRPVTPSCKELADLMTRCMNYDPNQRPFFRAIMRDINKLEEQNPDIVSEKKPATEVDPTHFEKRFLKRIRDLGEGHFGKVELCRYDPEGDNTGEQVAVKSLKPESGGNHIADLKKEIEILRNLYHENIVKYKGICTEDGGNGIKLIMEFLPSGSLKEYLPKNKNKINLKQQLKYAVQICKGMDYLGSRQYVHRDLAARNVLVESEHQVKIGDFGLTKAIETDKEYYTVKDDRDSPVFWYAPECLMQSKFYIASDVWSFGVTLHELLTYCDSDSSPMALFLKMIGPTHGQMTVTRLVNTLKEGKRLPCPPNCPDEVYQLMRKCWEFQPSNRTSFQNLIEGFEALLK
# [8] = molecular target: Calcium/calmodulin-dependent protein kinase kinase 1 (Homo sapiens) (UniProt Q8N5S9); experiment: Selectivity interaction (KinomeScan (DiscoverX)) EUB0000045b CAMKK1
# Calcium/calmodulin-dependent protein kinase kinase 1 (Homo sapiens), sequence (Q8N5S9 whole entry, looked up): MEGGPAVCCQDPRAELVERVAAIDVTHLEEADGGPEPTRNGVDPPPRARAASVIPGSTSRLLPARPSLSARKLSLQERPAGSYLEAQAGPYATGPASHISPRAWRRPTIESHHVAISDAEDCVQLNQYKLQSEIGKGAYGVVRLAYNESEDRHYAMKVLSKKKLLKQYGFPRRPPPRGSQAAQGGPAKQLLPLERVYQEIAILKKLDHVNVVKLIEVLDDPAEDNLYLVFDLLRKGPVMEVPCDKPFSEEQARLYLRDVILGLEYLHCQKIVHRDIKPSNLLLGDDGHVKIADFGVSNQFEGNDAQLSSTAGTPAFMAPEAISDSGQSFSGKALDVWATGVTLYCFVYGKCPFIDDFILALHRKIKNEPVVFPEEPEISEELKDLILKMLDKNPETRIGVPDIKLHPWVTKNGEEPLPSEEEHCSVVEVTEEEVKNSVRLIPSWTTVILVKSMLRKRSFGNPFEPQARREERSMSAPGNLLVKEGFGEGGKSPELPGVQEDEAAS
# [9] = molecular target: Mitogen-activated protein kinase kinase kinase 9 (Homo sapiens) (UniProt P80192); experiment: Selectivity interaction (Kinase panel (KiNativ target engagement assay in Jurkat cells)) EUB0001635a MAP3K9; type: cell-based; details: Selectivity number of off-targets 0.0, Selectivity number of targets 233.0, Source Knowledge https://www.sciencedirect.com/science/article/pii/S2451945619300674?via%3Dihub, at 1 µM
# Mitogen-activated protein kinase kinase kinase 9 (Homo sapiens), sequence (P80192 whole entry, looked up): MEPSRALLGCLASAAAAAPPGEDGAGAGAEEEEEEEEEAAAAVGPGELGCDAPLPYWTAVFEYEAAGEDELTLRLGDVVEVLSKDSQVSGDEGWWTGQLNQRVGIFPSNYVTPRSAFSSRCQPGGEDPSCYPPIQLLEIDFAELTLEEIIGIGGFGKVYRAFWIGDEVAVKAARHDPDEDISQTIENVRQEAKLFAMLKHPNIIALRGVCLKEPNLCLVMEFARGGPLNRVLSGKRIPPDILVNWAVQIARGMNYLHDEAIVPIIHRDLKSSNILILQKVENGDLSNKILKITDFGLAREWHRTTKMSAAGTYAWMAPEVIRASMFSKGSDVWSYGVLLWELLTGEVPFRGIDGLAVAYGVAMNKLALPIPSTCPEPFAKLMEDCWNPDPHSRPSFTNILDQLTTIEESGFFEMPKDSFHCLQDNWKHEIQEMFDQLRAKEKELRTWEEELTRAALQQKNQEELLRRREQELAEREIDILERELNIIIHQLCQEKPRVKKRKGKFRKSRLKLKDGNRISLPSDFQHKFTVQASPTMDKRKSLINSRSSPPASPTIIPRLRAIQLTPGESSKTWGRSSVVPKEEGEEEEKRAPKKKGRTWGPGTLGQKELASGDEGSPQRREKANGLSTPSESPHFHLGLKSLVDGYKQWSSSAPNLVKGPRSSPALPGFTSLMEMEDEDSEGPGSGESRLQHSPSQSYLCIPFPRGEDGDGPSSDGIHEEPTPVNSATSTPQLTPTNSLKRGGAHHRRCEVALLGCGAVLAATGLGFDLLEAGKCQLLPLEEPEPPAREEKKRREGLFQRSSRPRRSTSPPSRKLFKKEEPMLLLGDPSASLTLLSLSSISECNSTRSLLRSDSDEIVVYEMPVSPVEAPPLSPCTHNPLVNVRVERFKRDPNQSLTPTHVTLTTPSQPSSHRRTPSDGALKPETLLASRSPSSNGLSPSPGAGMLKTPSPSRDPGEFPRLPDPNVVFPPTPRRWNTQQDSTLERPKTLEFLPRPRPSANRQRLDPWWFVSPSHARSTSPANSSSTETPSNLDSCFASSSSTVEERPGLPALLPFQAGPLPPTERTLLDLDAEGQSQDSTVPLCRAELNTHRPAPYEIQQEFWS
# [10] = molecular target: Calcium/calmodulin-dependent protein kinase type 1D (Homo sapiens) (UniProt Q8IU85); details: at 10 µM
# [11] = molecular target: Serine/threonine-protein kinase Nek7 (Homo sapiens) (UniProt Q8TDX7); experiment: Selectivity interaction (ActivX KiNativ screen (kinase selectivity in THP-1 cell lysates)) EUB0000639a NEK7; type: subcellular; details: lysate, at 0.04 µM
# [12] = molecular target: Casein kinase I isoform gamma-1 (Homo sapiens) (UniProt Q9HCP0); experiment: Selectivity interaction (ProQinase) EUB0000171b CSNK1G1
# Casein kinase I isoform gamma-1 (Homo sapiens), sequence (Q9HCP0 whole entry, looked up, canonical isoform): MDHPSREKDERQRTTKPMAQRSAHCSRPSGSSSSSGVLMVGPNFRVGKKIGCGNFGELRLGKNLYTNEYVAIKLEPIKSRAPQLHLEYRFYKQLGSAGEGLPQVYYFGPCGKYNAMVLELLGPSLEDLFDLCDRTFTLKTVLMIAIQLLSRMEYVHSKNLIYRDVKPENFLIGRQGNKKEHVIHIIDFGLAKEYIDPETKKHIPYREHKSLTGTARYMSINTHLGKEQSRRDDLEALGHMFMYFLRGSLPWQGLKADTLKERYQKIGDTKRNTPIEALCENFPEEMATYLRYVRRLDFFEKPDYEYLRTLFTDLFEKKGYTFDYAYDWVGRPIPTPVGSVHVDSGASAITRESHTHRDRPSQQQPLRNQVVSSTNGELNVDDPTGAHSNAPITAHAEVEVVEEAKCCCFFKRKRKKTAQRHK
# [13] = molecular target: T2, Membrane-associated tyrosine- and threonine-specific cdc2-inhibitory kinase (Homo sapiens) (UniProt Q99640); experiment: Selectivity interaction (KinomeScan (DiscoverX)) EUB0001049a PKMYT1; details: at 1 µM
# T2 sequence (whole entry): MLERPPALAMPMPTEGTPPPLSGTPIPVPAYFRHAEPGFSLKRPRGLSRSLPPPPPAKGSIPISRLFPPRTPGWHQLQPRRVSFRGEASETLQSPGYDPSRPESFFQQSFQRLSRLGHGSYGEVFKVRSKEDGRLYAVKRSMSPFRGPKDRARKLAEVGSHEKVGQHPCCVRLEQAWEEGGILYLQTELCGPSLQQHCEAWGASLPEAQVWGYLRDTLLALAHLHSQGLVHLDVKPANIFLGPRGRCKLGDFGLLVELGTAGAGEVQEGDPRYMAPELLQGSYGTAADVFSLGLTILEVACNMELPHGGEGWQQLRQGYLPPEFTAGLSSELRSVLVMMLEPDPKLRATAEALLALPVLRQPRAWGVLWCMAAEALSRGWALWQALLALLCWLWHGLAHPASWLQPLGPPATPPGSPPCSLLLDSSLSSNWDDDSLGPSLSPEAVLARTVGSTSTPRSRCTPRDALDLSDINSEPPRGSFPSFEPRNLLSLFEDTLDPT
# [14] = molecular target: Cyclin-dependent kinase 4 (Homo sapiens, UniProt P11802); experiment: Selectivity interaction (Kinase panel (33PanQinase(R) Activity Assay)) EUB0000877a CDK4
# Cyclin-dependent kinase 4, sequence (P11802 whole entry): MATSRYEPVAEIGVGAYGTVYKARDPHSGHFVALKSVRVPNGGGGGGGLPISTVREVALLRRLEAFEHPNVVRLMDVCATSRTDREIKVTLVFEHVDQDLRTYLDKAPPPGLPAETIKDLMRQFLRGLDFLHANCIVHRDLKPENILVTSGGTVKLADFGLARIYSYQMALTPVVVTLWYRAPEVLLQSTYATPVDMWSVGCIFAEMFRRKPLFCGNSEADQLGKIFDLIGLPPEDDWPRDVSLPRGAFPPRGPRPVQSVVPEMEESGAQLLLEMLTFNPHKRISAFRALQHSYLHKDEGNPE
# [15] = molecular target: BMP-2-inducible protein kinase (Homo sapiens) (UniProt Q9NSY1); experiment: Selectivity interaction (KinomeScan (DiscoverX)) EUB0000092b BMP2K; details: at 10 µM
# [16] = molecular target: T3, Testis-specific serine/threonine-protein kinase 2 (Homo sapiens) (UniProt Q96PF2); experiment: Selectivity interaction (Kinase screening (Nanosyn)) EUB0000604a TSSK2
# T3 sequence (whole entry): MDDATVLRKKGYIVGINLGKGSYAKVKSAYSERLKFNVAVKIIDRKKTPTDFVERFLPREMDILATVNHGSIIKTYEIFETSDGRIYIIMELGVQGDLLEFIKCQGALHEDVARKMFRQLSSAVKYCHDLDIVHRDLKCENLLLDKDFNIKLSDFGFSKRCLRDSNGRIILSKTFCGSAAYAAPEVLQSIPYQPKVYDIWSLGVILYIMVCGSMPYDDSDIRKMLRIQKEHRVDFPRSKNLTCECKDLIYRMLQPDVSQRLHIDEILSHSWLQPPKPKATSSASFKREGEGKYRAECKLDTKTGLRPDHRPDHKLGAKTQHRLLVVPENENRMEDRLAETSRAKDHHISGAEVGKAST
smiles,measurement,setting,value
CCN(CC)CCCCNc1ncc2cc(-c3cc(OC)cc(OC)c3)c(NC(=O)NC(C)(C)C)nc2n1,% of control,SRSF protein kinase 1,100%
CN(C)C/C=C/C(=O)Nc1ccc(C(=O)N2CCCC(Nc3ncc(Cl)c(-c4c[nH]c5ccccc45)n3)C2)cc1 (centres undefined),% of control,[1],100%
CN(C)CCOc1ccc(-c2nc(-c3ccncc3)c(-c3ccc4c(c3)CC/C4=N\O)[nH]2)cc1,% of control,[2],80%
same,% of control,[3],59%
CNC(=O)Nc1ccc(-c2nc(N3CC4CCC(C3)O4)c3cnn(C4CCC5(CC4)OCCO5)c3n2)cc1,% of control,[4],92%
same,% of control,[5],100%
same,% of control,[6],100%
N#Cc1cccc(-c2c[nH]c3ncnc(N4CCOCC4)c23)c1,% of control,[7],94%
C=CC(=O)Nc1cc(-n2c(=O)ccc3cnc4ccc(-c5ccc(NS(C)(=O)=O)cc5)cc4c32)ccc1C,% of control,[8]; at 1 µM,100%
same,% of control,[8]; at 10 µM,74%
C=CC(=O)Nc1ccc(C(=O)Nc2[nH]nc3c2CN(C(=O)N[C@H](CN(C)C)c2ccccc2)C3(C)C)cc1,% of engagement,[9],0.3%
Cc1cc([C@@H](C)Nc2ccccc2C(=O)O)c2nc(N3CCOCC3)cc(=O)n2c1 [AZD-6482],% of control,[10],100%
CC[C@@H]1[C@H](F)C(=O)N[C@@H]1COc1nccc2cc(C(N)=O)c(OC)cc12 [ZIMLOVISERTIB],% of inhibition,[11],1.5%
C=CC(=O)Nc1cccc(C(=O)Nc2ccc(Nc3cc(-c4[nH]c(SC)nc4C)ccn3)cc2)c1,% of control,[12]; at 1 µM,65%
same,% of control,[12]; at 5 µM,31%
COc1cc(Nc2nc(C)cc(-c3cnn4nc(OC)ccc34)n2)cc(C(F)(F)F)c1,% of control,[13],97%
CCC(=O)N1CC[C@H](Nc2ncnc3c2CN(c2cnc(OC)c(C(F)(F)F)c2)CC3)C1 [LENIOLISIB],pIC50,[14],< 5.00
CCC(=O)N1CCN(c2ccc(-n3c(=O)ccc4cnc5ccc(-c6cnc7ccccc7c6)cc5c43)cc2C(F)(F)F)CC1,% of control,[15],100%
Cc1cnc(Nc2ccc(F)cc2Cl)nc1-c1c[nH]c(C(=O)N[C@H](CO)c2cccc(Cl)c2)c1,% of inhibition,[16],3%
